Laboratory results taken from patent US10682351B2, “Methods of administering elagolix” (AbbVie Inc., priority 2015, dated 2020).
Read-outs that look alike come from different tables or passages of the source.

Legend:
[1] = Safety in elagolix/ketoconazole interaction study (adverse events, vital signs, ECGs, laboratory tests); type: in vivo, human
Protocol: (§1) Each subject received elagolix 150 mg single dose alone and on the 4th day of a six-day regimen of ketoconazole 400 mg q.d.
Adverse event rates across treatment periods were 0% (elagolix alone), 82% (ketoconazole alone), and 36% (co-administration). The most common adverse event was nausea, which was noted as probably related to ketoconazole alone. […] Mean elagolix plasma concentration—time profiles for elagolix administered with ketoconazole, versus elagolix administered alone, are shown in FIG. 2.

[2] = in vivo
Protocol: This was an open-label, two-period, sequential study conducted in 12 females chosen according to the protocol selection criteria. Each subject received elagolix 150 mg single dose with and without rifampin 600 mg q.d. for 10 days. Intensive blood samples for elagolix assay were collected up to 36 hours after elagolix dosing in both periods. Safety data, including adverse event monitoring, vital signs, ECGs, and laboratory tests were collected during the study.
Values for elagolix maximum concentration (Cmax) and area-under-the-curve (AUC) were estimated using noncompartmental methods. Analysis of variance was performed to compare elagolix Cmax and AUC with and without rifampin.

[3] = Pharmacokinetic interaction between elagolix and ketoconazole (open-label, two-period, sequential study); type: in vivo, human; settings: elagolix 150 mg single dose on 4th day of six-day ketoconazole 400 mg q.d. vs elagolix alone; healthy premenopausal females
Protocol: In a second embodiment of this invention, it was discovered that ketoconazole increased elagolix exposure levels.
as §1
Analysis of variance was performed to compare the pharmacokinetic parameters of elagolix with and without ketoconazole.

Compound	Adverse event rate ([1]; drug alone treatment period, elagolix 150 mg single dose or ketoconazole 400 mg q.d., healthy premenopausal females) [%]	Vital signs, ECG or laboratory measurements [2]	Elagolix AUC increase [3] [fold]	Elagolix Cmax increase [3] [fold]	Vital signs, ECG or laboratory measurements ([1]; in vivo)
CC(=O)N1CCN(c2ccc(OCC3COC(Cn4ccnc4)(c4ccc(Cl)cc4Cl)O3)cc2)CC1 (centres unmarked) [ketoconazole, Ketoconazole, reference compound]	82				
COc1cccc(-c2c(C)n(Cc3c(F)cccc3C(F)(F)F)c(=O)n(C[C@H](NCCCC(=O)[O-])c3ccccc3)c2=O)c1F.[Na+] [Elagolix, 4-((R)-2-[5-(2-fluoro-3-methoxy-phenyl)-3-(2-fluoro-6-trifluoromethyl-benzyl)-4-methyl-2,6-dioxo-3,6-dihydro-2H-pyrimidin-1-yl]-1-phenyl-ethylamino)-butyric acid sodium salt]		No clinically significant vital signs, ECG or laboratory measurements were observed	2.2	1.8	No clinically significant vital signs, ECG or laboratory measurements were observed
